# Source: ChEMBL document CHEMBL1126924, “R2 C-terminal peptide inhibition of mammalian and yeast ribonucleotide reductase” (J Med Chem, 1993)
# Square brackets hold non-standard residues; d marks the D form. Peptide text beside a SMILES is read from it. aThr = C[C@H](O)[C@H](N)C(=O)O
# Biological target: Ribonucleoside-diphosphate reductase RR1 (Homo sapiens) (UniProt P23921+Q7LG56+P31350)
# Test: Relative inhibitory potency against mammalian ribonucleotide reductase
# Format: protein-complex assay
# Ribonucleoside-diphosphate reductase RR1 (Homo sapiens), sequence (P23921 whole entry, looked up): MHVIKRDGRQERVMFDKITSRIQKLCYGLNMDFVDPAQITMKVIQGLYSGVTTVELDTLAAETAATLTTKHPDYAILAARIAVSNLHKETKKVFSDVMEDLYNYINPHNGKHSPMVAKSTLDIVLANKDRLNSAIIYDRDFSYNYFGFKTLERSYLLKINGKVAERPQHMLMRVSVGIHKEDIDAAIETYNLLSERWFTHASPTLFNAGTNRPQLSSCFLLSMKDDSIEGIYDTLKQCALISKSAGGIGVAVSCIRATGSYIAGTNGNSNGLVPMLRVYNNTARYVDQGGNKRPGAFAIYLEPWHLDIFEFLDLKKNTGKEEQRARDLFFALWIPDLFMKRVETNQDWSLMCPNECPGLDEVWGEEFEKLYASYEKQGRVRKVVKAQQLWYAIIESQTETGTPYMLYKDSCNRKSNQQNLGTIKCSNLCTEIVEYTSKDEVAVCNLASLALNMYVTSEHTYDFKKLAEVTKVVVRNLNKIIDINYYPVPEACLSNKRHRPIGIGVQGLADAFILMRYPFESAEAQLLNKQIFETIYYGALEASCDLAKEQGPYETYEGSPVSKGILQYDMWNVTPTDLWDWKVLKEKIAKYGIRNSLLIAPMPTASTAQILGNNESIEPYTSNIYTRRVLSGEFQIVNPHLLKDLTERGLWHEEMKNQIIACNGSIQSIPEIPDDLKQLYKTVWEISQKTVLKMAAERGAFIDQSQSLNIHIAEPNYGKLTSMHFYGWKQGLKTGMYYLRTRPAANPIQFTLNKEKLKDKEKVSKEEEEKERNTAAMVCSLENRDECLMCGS
# Ribonucleoside-diphosphate reductase RR1 (Homo sapiens), sequence (P31350 whole entry, looked up): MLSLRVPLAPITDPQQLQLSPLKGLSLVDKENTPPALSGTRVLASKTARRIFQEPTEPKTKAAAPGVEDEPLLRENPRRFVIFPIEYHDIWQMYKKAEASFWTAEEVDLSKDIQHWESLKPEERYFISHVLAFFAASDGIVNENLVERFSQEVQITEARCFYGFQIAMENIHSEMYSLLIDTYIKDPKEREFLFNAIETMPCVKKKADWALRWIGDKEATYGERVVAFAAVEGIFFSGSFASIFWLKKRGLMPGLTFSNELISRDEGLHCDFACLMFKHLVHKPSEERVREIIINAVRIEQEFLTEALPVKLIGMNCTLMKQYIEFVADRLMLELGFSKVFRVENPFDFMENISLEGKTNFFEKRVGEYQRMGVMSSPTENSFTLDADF
# Ribonucleoside-diphosphate reductase RR1 (Homo sapiens), sequence (Q7LG56 whole entry, looked up): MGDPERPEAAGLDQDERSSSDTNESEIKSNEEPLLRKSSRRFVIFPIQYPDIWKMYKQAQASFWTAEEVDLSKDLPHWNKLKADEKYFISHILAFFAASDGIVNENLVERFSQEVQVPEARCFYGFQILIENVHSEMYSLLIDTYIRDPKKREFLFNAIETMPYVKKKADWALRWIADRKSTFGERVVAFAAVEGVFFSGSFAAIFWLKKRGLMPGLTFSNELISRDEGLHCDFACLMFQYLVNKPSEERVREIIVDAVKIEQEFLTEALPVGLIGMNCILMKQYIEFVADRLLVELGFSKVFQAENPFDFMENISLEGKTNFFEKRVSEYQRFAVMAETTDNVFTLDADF
row,Molecule,RI [%]
1,CC(=O)N[C@@H](Cc1ccccc1)C(=O)N[C@H](C(=O)N[C@@H](CC(C)C)C(=O)N[C@@H](CC(=O)O)C(=O)NCC(=O)N[C@@H](CC(=O)O)C(=O)N[C@@H](Cc1ccccc1)C(=O)O)[C@H](C)O,9
2,CC(=O)N[C@@H](Cc1ccc(N)cc1)C(=O)N[C@H](C(=O)N[C@@H](CC(C)C)C(=O)N[C@@H](CC(=O)O)C(=O)N[C@@H](C)C(=O)N[C@@H](CC(=O)O)C(=O)N[C@@H](Cc1ccccc1)C(=O)O)[C@H](C)O,10
3,CC(=O)N[C@@H](Cc1ccccc1)C(=O)N[C@H](C(=O)N[C@@H](CC(C)C)C(=O)N[C@@H](CC(=O)O)C(=O)N[C@@H](Cc1ccccc1)C(=O)O)[C@H](C)O,2.5
4,CC(=O)N[C@@H](Cc1ccccc1)C(=O)N[C@H](C(=O)N[C@@H](CC(C)C)C(=O)N[C@@H](CC(=O)O)C(=O)N[C@@H](CC(C)C)C(=O)N[C@@H](CC(=O)O)C(=O)N[C@@H](Cc1ccccc1)C(=O)O)[C@H](C)O,35
5,CC(=O)N[C@@H](CC(C)C)C(=O)N[C@H](C(=O)N[C@@H](CC(C)C)C(=O)N[C@@H](CC(=O)O)C(=O)N[C@@H](C)C(=O)N[C@@H](CC(=O)O)C(=O)N[C@@H](Cc1ccccc1)C(=O)O)[C@H](C)O (Ac-L[aThr]LDADF-OH),< 3
6,CC(=O)N[C@@H](CO)C(=O)N[C@@H](Cc1ccccc1)C(=O)N[C@H](C(=O)N[C@@H](CC(C)C)C(=O)N[C@@H](CC(=O)O)C(=O)N[C@@H](C)C(=O)N[C@@H](CC(=O)O)C(=O)N[C@@H](Cc1ccccc1)C(=O)O)[C@H](C)O,100
7,CC(=O)N[C@@H](Cc1ccccc1)C(=O)N[C@H](C(=O)N[C@@H](CC(C)C)C(=O)N[C@@H](C)C(=O)N[C@@H](C)C(=O)N[C@@H](CC(=O)O)C(=O)N[C@@H](Cc1ccccc1)C(=O)O)[C@H](C)O,2.9
8,CC(C)C[C@H](NC(=O)[C@@H](NC(=O)[C@@H](N)Cc1ccccc1)[C@H](C)O)C(=O)N[C@@H](CC(=O)O)C(=O)N[C@@H](C)C(=O)N[C@@H](CC(=O)O)C(=O)N[C@@H](Cc1ccccc1)C(=O)O (H-F[aThr]LDADF-OH),< 3
9,CC(=O)N[C@@H](Cc1ccccc1)C(=O)N[C@H](C(=O)N[C@@H](CC(C)C)C(=O)N[C@@H](CC(=O)O)C(=O)N[C@@H](C)C(=O)N[C@@H](CC(N)=O)C(=O)N[C@@H](Cc1ccccc1)C(=O)O)[C@H](C)O,23

# Results, then the molecule that gave them:
row,RI [%],Molecule
1,2.5,Ac-FLDADF-OH
2,10,CC(=O)N[C@@H](Cc1ccc(N=[N+]=[N-])cc1)C(=O)N[C@H](C(=O)N[C@@H](CC(C)C)C(=O)N[C@@H](CC(=O)O)C(=O)N[C@@H](C)C(=O)N[C@@H](CC(=O)O)C(=O)N[C@@H](Cc1ccccc1)C(=O)O)[C@H](C)O
3,28,CC(=O)N[C@@H](Cc1ccccc1)C(=O)N[C@H](C(=O)N[C@@H](CC(C)C)C(=O)N[C@@H](CC(=O)O)C(=O)N[C@@H](C)C(=O)N[C@@H](C)C(=O)N[C@@H](Cc1ccccc1)C(=O)O)[C@H](C)O
4,25,CC(C)C[C@H](NC(=O)[C@@H](NC(=O)[C@H](Cc1ccccc1)NC(=O)[C@@H](N)CO)[C@H](C)O)C(=O)N[C@@H](CC(=O)O)C(=O)N[C@@H](C)C(=O)N[C@@H](CC(=O)O)C(=O)N[C@@H](Cc1ccccc1)C(=O)O
5,35,CC(=O)N[C@@H](Cc1ccccc1)C(=O)N[C@H](C(=O)N[C@H](C(=O)N[C@@H](CC(=O)O)C(=O)N[C@@H](C)C(=O)N[C@@H](CC(=O)O)C(=O)N[C@@H](Cc1ccccc1)C(=O)O)C(C)C)[C@H](C)O
6,34,CC(=O)N[C@@H](Cc1ccccc1)C(=O)N[C@H](C(=O)N[C@@H](CC(C)C)C(=O)N[C@@H](CC(=O)O)C(=O)N[C@@H](C)C(=O)N[C@@H](CC(C)C)C(=O)N[C@@H](Cc1ccccc1)C(=O)O)[C@H](C)O
7,< 3,CC(=O)N[C@@H](Cc1ccccc1)C(=O)N[C@H](C(=O)N[C@@H](CC(C)C)C(=O)N[C@@H](CC(=O)O)C(=O)N[C@@H](C)C(=O)N[C@@H](CC(=O)O)C(=O)N[C@@H](CC(C)C)C(=O)O)[C@H](C)O (Ac-F[aThr]LDADL-OH)
